In US20240226127A1, “NUCLEOSIDE COMPOUND AND APPLICATION THEREOF IN THE TREATMENT OF FELINE INFECTIOUS PERITONITIS” (VIGONVITA LIFE SCIENCES CO., LTD., priority 2021, published 2024):
≈ marks a conversion by molar mass, not a printed value.

Key:
[1] = test system: feline infectious peritonitis; experiment: Pharmacodynamic experiment on feline infectious peritonitis (subcutaneous aqueous injection); type: in vivo; details: cats with feline infectious peritonitis, 2 mg/kg once a day subcutaneous aqueous injection, two weeks; for weight changes of cats before and after treatment: FIG. 1; for number of erythrocytes: FIG. 2; for ratio of Albumin to Globulin (A/G): FIG. 3
Description: 15 mg of compounds 1, 32, and 85 was dissolved separately in 5 mL of solution (water:propylene glycol:PEG=2:1:1) to prepare an injection solution for injection administration. The injection can be stored at room temperature. Use a 2 mL disposable veterinary syringe to draw the corresponding volume of the injection solution and expel air upwards. When injecting, choose a site with soft skin, loose subcutaneous tissue, and fewer blood vessels, such as the neck or medial thigh, for subcutaneous injection. The dosage of administration is 2 mg/kg body weight once a day. Blood samples are collected every three days and blood routine and corresponding biochemical indicators are measured. The end of the experiment is marked when the cat's biochemical indicators return to normal. The indicator data measured in the experiment includes body weight data, erythrocyte data, and data of the ratio of Albumin to Globulin. The experimental subjects for each compound are 15 cats diagnosed with feline infectious peritonitis.

[2] = test system: Feline Infectious Peritonitis Virus (FIPV); experiment: In vitro anti feline infectious peritonitis virus (FIPV) activity in CRFK cells; type: cell-based; details: Alphacoronavirus 1, 0.1 MOI FIPV, 72 hours, CellTier-Glo cell viability
Description: Well-growing CRFK cells were inoculated on a 96-well plate. When the cells grow to 80%-90% confluence, 0.1 MOI Feline Infectious Peritonitis Virus (FIPV) and different concentrations of test compounds (0.3125 μM, 0.625 μM, 1.25 μM, 2.5 μM, 5 μM, 10 μM, 20 μM, and 40 μM) were added to each well. Simultaneously set up cell control and virus control with 1% DMSO each well. After being incubated at 37° C. for 72 hours, the cells were treated with CellTier-Glo luminescence assay cell viability detection reagents (Promega, Madison, WI, USA), and the half effective concentration (EC50) of the compounds against virus inhibition was calculated by GraphPad prism 7 software.

[3] = Solubility test in water (HPLC, external standard method); type: physicochemical; details: thermodynamic from solid
Description: Experimental method: Refer to the high-performance liquid chromatography method (Chinese Pharmacopoeia, 2020 Edition, Part Four, General Rule 0512) for determination.
a. Take approximately 1-2 mg of the compound, and place it in a 10 ml volumetric flask. Add lml of water and vigorously shake for 30 seconds every 5 minutes. Observe for 30 minutes. The sample is not completely dissolved. Filter through a 0.45 μm filter membrane, and take the remaining filtrate as the test solution.
b. Take approximately amount of the reference substance, add solvent (DMSO: methanol=10:90) to dissolve and dilute it quantitatively to produce a solution containing 0.1 mg per 1 ml as the reference substance solution.
c. Accurately measure 20 μl of each of the reference substance and test solution, and inject them into the liquid chromatograph respectively. Calculate the peak area according to the external standard method. Calculation formula: […]
In the formula: AT: the main peak area of the test solution; AR: the main peak area of reference substance solution; WR: weighing amount of reference substance solution, mg; VR: dilution volume of reference substance solution, ml; S: content of reference substance solution, %.
d. Chromatographic conditions: Using octadecylsilane bonded silica gel as the filling agent (Welch Ultimate XB-C18, 4.6×150 mm, suitable for 5 um columns). […]

N#C[C@@]1(c2ccc3c(N)ncnn23)O[C@H](COC(=O)CO)[C@@H](O)[C@H]1O [Compound 32]
weight changes of cats before and after treatment [1]: significantly raised
number of erythrocytes [1]: significantly increased
ratio of Albumin to Globulin (A/G) [1]: reached normal values
EC50 [2]: 6210 nM

N#C[C@@]1(c2ccc3c(N)ncnn23)O[C@H](CO)[C@@H](O)[C@H]1O [GS-441524]
solubility at 30 min [3]: 50 µg/mL (≈ 172 µM)

CC(=O)OC[C@H]1O[C@@](C#N)(c2ccc3c(N)ncnn23)[C@H](O)[C@@H]1O [Compound 1]
weight changes of cats before and after treatment [1]: significantly raised
number of erythrocytes [1]: significantly increased
ratio of Albumin to Globulin (A/G) [1]: reached normal values

N#C[C@@]1(c2ccc3c(N)ncnn23)O[C@H](COC(=O)C2CCC2)[C@@H](O)[C@H]1O [Compound 16]
EC50 [2]: 810 nM

N#C[C@@]1(c2ccc3c(N)ncnn23)O[C@H](COC(=O)C2CCCCC2)[C@@H](O)[C@H]1O [Compound 18]
EC50 [2]: 350 nM

N#C[C@@]1(c2ccc3c(N)ncnn23)O[C@H](COC(=O)CC(F)(F)F)[C@@H](O)[C@H]1O [Compound 14]
EC50 [2]: 2950 nM

CC(C)C(=O)OC[C@H]1O[C@@](C#N)(c2ccc3c(N)ncnn23)[C@H](O)[C@@H]1O [Compound 4]
EC50 [2]: 650 nM

CN(C)CCN(C)C(=O)OC[C@H]1O[C@@](C#N)(c2ccc3c(N)ncnn23)[C@H](O)[C@@H]1O [Compound 85]
weight changes of cats before and after treatment [1]: significantly raised
number of erythrocytes [1]: significantly increased
ratio of Albumin to Globulin (A/G) [1]: reached normal values
